Results published in US10822723B2, “Fusion protein crystal comprising a moiety” (Agency for Science, Technology and Research, priority 2015, dated 2020).

Tests used:
[1] = molecular target: T1, GFP-Inka1:Flag-PAK4cat crystal (Homo sapiens, UniProt O96013); test: Live cell imaging of GFP-Inka1:PAK4cat crystal growth; format: cell-based; details: 5 μM, FIG. 6d
T1 construct: the kinase catalytic domain of human PAK4 (278-591); expressed in transfected cells
Protocol: The cells were plated at 50% confluence glass cover slips overnight: plasmid transfection used GFP-iBox-Pak4cat and FLAG-iBox-Pak4cat constructs at a ratio of 4:1 to promote crystal nucleation. The cover slips were transferred to a Chamlide magnetic chamber (Live cell instruments, Seoul, Korea) with 5% CO2 at 37° C. for live imaging on an Zeiss Axiovert 200M Live Cell Imaging with a 10× objective. We imaged multiple chosen regions for 8 hours at 6 min intervals. To measure crystal growth rate, we used instead a Nikon Eclipse Ti microscope equipped with spinning disk confocal attachment (Yokogawa CSU-22 module) to avoid photo-damage. The cells were imaged at 60×1.4 NA objective at 2 min intervals. For SIM and confocal imaging, cells were fixed in non-hardening mounting media (Vectashield). The slides were imaged by Delta vision OMX SIM with a 100×1.4 NA objective. Confocal imaging used an Olympus FV1000 upright system with 60×1.42NA objective. The 3D stacks were analyzed by IMARIS software.

[2] = molecular target: T2, PAK4cat (Homo sapiens, UniProt O96013); test: In vitro kinase assay, phosphorylation of GST-Raf13 by PAK4cat; format: biochemical; details: FIG. 1c
T2 construct: PAK1 (1-545) and PAK4 (286-591), respectively; 6His (N); made in house; host or cells: Escherichia coli BL21-CodonPlus(DE3)
Protocol: (§1) Purified PAK1 or PAK4 (50 nM in 25-50 μl) were incubated with 10 μM GST-Raf1S338 peptide in 10 μM ATP (2 μCi of γ32P ATP) of kinase buffer (25 mM Hepes, pH 7.3, 0.1% Triton-X100, 50 mM KCl, 10 mM MgCl2, 1 mM DTT) at 30° C. for 20 min. Samples were analysed by SDS-polyacrylamide gel electrophoresis, or adsorption of the GST substrate mix onto PVDF membranes, followed by extensive washing to remove free γ32P-ATP. The synthetic peptides of 95% purity, as determined by HPLC and MS analyses (GenScript), were soluble in aqueous PBS. Stock solutions (10 mM) were quantified via calculated extinction coefficients and absorbance measurements at 280 nm and stored at −80° C. The diluted peptides were incubated at the indicated concentrations with the kinase on ice (10 min) before addition of γ32P ATP and subsequent incubation at 30° C. The synthetic peptide array (Jerini Biotools) was phosphorylated in situ as described previously.

[3] = molecular target: PAK1 (Homo sapiens, UniProt Q13153); test: In vitro kinase assay, phosphorylation of GST-Raf13 by 6His-PAK1 (activated); format: biochemical; details: FIG. 1c
Protocol: as §1

T1 sequence (O96013 278-591): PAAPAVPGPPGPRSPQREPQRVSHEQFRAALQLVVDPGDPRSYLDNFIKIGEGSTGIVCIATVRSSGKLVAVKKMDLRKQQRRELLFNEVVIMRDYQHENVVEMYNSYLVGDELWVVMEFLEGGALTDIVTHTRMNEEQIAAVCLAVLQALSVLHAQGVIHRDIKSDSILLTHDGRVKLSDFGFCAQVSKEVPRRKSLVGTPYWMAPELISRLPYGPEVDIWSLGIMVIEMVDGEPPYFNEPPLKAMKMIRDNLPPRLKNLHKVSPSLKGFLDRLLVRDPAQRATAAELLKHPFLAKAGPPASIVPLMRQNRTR
T2 sequence (O96013 286-591): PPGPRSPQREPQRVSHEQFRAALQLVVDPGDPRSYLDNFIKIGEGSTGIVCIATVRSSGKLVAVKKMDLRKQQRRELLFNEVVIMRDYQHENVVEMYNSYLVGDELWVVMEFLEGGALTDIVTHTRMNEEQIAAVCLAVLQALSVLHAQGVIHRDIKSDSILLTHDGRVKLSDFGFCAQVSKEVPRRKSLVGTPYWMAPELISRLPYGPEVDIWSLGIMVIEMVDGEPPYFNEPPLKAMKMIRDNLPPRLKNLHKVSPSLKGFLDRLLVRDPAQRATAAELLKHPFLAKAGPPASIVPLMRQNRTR
Sequence of PAK1 (Q13153 whole entry): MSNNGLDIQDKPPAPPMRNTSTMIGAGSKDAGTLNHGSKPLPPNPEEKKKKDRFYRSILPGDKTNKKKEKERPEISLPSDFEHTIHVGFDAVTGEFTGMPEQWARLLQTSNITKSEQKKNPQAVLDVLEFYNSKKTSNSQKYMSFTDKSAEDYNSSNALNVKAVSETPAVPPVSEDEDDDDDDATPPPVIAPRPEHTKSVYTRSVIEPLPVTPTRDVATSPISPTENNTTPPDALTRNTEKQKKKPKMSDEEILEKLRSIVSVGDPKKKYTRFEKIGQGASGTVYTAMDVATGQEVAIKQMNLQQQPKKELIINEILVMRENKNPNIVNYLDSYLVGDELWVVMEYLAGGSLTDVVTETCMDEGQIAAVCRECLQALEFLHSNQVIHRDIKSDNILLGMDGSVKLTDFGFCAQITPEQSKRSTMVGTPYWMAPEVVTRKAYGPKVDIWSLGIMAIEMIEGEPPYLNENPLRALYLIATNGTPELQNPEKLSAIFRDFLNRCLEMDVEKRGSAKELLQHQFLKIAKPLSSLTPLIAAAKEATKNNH

Row | Molecule | GFP signal of co-crystals during the elongation phase ([1]; GFP-Inka1:HA-PAK4cat co-crystals) | crystal growth after drug addition ([1]; growing GFP-Inka1:Flag-PAK4cat crystal) | PAK4cat inhibition in vitro [2] | effect on PAK1 [3]
1 | Cc1nc(Nc2[nH]nc3c2CN(C(=O)N[C@H](CN(C)C)c2ccccc2)C3(C)C)c2sccc2n1 [PF-03758309] | depleted of GFP signal | slowed | – | –
2 | GST-iBox: recombinant 38 amino acid 'Inka box' (Inka1 residues 166-203) as GST fusion | – | – | potent | does not affect
